# Where two headings read alike, the source gives them in different places.
# Columns and labels:
# Test in all cases: NCI60 five-dose screen
# [1] = test system: HS 578T; format: cell-based; details: Homo sapiens, breast cancer; for CC50: read-out: LC50 (the source's name)
# [2] = test system: T-47D; format: cell-based; details: Homo sapiens, T47D, breast cancer; for CC50: read-out: LC50 (the source's name)
# [3] = test system: SK-MEL-2; format: cell-based; details: Homo sapiens, SK-MEL-2, melanoma; for CC50: read-out: LC50 (the source's name)
# [4] = test system: SK-OV-3; format: cell-based; details: Homo sapiens, SK-OV-3, ovarian cancer; for CC50: read-out: LC50 (the source's name)
# [5] = test system: MDA-MB-468; format: cell-based; details: Homo sapiens, MDA-MB-468, breast cancer; for CC50: read-out: LC50 (the source's name)
# [6] = test system: HOP-92; format: cell-based; details: Homo sapiens, HOP-92, NSC lung cancer; for CC50: read-out: LC50 (the source's name)
# [7] = test system: SN12C; format: cell-based; details: Homo sapiens, renal cancer; for CC50: read-out: LC50 (the source's name)
# [8] = test system: IGROV1; format: cell-based; details: Homo sapiens, IGROV-1; IGROV1, ovarian cancer
# [9] = test system: A549/ATCC; format: cell-based; details: Homo sapiens, NSC lung cancer; for CC50: read-out: LC50 (the source's name)
# [10] = test system: COLO 205; format: cell-based, human; details: for CC50: read-out: LC50 (the source's name)
# [11] = test system: KM12; format: cell-based; details: Homo sapiens, KM12, colon cancer; for CC50: read-out: LC50 (the source's name)
# [12] = test system: NCI-H23; format: cell-based; details: Homo sapiens, NCI-H23, NSC lung cancer; for CC50: read-out: LC50 (the source's name)
# [13] = test system: HCT-15; format: cell-based; details: Homo sapiens, HCT-15, colon cancer; for CC50: read-out: LC50 (the source's name)
# [14] = test system: SF-295; format: cell-based; details: Homo sapiens, SF-295, CNS cancer; for CC50: read-out: LC50 (the source's name)
# [15] = test system: SW-620; format: cell-based; details: Homo sapiens, SW-620, colon cancer; for CC50: read-out: LC50 (the source's name)
# [16] = test system: RXF 393; format: cell-based; details: Homo sapiens, RXF 393, renal cancer; for CC50: read-out: LC50 (the source's name)
# [17] = test system: MALME-3M; format: cell-based; details: Homo sapiens, melanoma; for CC50: read-out: LC50 (the source's name)
# [18] = test system: NCI-H322M; format: cell-based; details: Homo sapiens, NSC lung cancer; for CC50: read-out: LC50 (the source's name)
# [19] = test system: MDA-MB-231/ATCC; format: cell-based; details: Homo sapiens, breast cancer; for CC50: read-out: LC50 (the source's name)
# [20] = test system: A498; format: cell-based; details: Homo sapiens, A498, renal cancer; for CC50: read-out: LC50 (the source's name)
# [21] = test system: SK-MEL-28; format: cell-based; details: Homo sapiens, SK-MEL-28, melanoma; for CC50: read-out: LC50 (the source's name)
# [22] = test system: BT-549; format: cell-based; details: Homo sapiens, BT-549, breast cancer; for CC50: read-out: LC50 (the source's name)
# [23] = test system: NCI/ADR-RES; format: cell-based, human; details: ovarian cancer; for CC50: read-out: LC50 (the source's name)
# [24] = test system: TK-10; format: cell-based; details: Homo sapiens, TK-10, renal cancer; for CC50: read-out: LC50 (the source's name)
# [25] = test system: HL-60 (TB); format: cell-based; details: Homo sapiens, leukemia; for CC50: read-out: LC50 (the source's name)
# [26] = test system: HOP-62; format: cell-based; details: Homo sapiens, HOP-62, NSC lung cancer; for CC50: read-out: LC50 (the source's name)
# [27] = test system: SF-268; format: cell-based; details: Homo sapiens, SF-268, CNS cancer; for CC50: read-out: LC50 (the source's name)
# [28] = test system: OVCAR-3; format: cell-based; details: Homo sapiens, OVCAR-3, ovarian cancer; for CC50: read-out: LC50 (the source's name)
# [29] = test system: UO-31; format: cell-based; details: Homo sapiens, UO-31, renal cancer; for CC50: read-out: LC50 (the source's name)
# [30] = test system: UACC-62; format: cell-based; details: Homo sapiens, UACC-62, melanoma; for CC50: read-out: LC50 (the source's name)
# [31] = test system: EKVX; format: cell-based; details: Homo sapiens, NSC lung cancer; for CC50: read-out: LC50 (the source's name)
# [32] = test system: PC-3; format: cell-based; details: Homo sapiens, PC-3, prostate cancer; for CC50: read-out: LC50 (the source's name)
# [33] = Homo sapiens, COLO 205, COLO 205, colon cancer
# [34] = Homo sapiens, COLO 205, colon cancer
structure (smiles),measurement,setting,value
"Cn1cccc1/C=N/NC(=O)c1[nH]c2ccc(Br)cc2c1-c1ccccc1 [Derivative 3d, (E)-5-Bromo-N′-((1-methyl-1H-pyrrol-2-yl)methylene)-3-phenyl-1H-indole-2-carbohydrazide]",GI50,[1],0.22 µM
same,CC50,[1],> 100 µM
same,GI50,[2],0.344 µM
same,CC50,[2],> 100 µM
same,GI50,[3],0.366 µM
same,CC50,[3],> 100 µM
same,GI50,[4],1.61 µM
same,CC50,[4],> 100 µM
same,GI50,[5],0.155 µM
same,CC50,[5],> 100 µM
same,GI50,[6],0.429 µM
same,CC50,[6],> 100 µM
same,GI50,[7],0.497 µM
same,CC50,[7],> 100 µM
same,GI50,[8],0.621 µM
same,GI50,[9],0.649 µM
same,CC50,[9],> 100 µM
same,CC50,[10]; [33],> 100 µM
same,GI50,[10]; [34],0.366 µM
same,GI50,[11],0.357 µM
same,CC50,[11],> 100 µM
same,GI50,[12],0.447 µM
same,CC50,[12],> 100 µM
same,GI50,[13],0.228 µM
same,CC50,[13],> 100 µM
same,GI50,[14],0.321 µM
same,CC50,[14],> 100 µM
same,GI50,[15],0.432 µM
same,CC50,[15],> 100 µM
same,GI50,[16],0.28 µM
same,CC50,[16],> 100 µM
same,GI50,[17],0.409 µM
same,CC50,[17],> 100 µM
same,GI50,[18],1.98 µM
same,CC50,[18],> 100 µM
same,GI50,[19],0.237 µM
same,CC50,[19],> 100 µM
same,GI50,[20],> 100 µM
same,CC50,[20],> 100 µM
same,GI50,[21],4.7 µM
same,CC50,[21],> 100 µM
same,GI50,[22],2.81 µM
same,CC50,[22],> 100 µM
same,GI50,[23]; Homo sapiens,0.186 µM
same,CC50,[23]; Homo sapiens,40.9 µM
same,GI50,[24],1.01 µM
same,CC50,[24],> 100 µM
same,GI50,[25],0.317 µM
same,CC50,[25],> 100 µM
same,GI50,[26],0.57 µM
same,CC50,[26],> 100 µM
same,GI50,[27],0.547 µM
same,CC50,[27],> 100 µM
same,GI50,[28],0.246 µM
same,CC50,[28],> 100 µM
same,GI50,[29],0.33 µM
same,CC50,[29],> 100 µM
same,GI50,[30],0.283 µM
same,CC50,[30],> 100 µM
same,GI50,[31],0.641 µM
same,CC50,[31],> 100 µM
same,GI50,[32],0.564 µM
same,CC50,[32],> 100 µM
"O=C(N/N=C/c1cc(Br)c[nH]1)c1[nH]c2ccc(Br)cc2c1-c1ccccc1 [Derivative 3e, (E)-5-Bromo-N′-((4-bromo-1H-pyrrol-2-yl)methylene)-3-phenyl-1H-indole-2-carbohydrazide]",GI50,[1],0.34 µM
same,CC50,[1],> 100 µM
same,GI50,[2],1.4 µM
same,CC50,[2],82.5 µM
same,GI50,[3],0.322 µM
same,CC50,[3],38.1 µM
same,GI50,[4],0.966 µM
same,CC50,[4],53.8 µM
same,GI50,[5],0.231 µM
same,CC50,[5],13 µM
same,GI50,[6],1.51 µM
same,CC50,[6],26.3 µM
same,GI50,[7],0.31 µM
same,CC50,[7],5.49 µM
same,GI50,[8],0.44 µM
same,GI50,[9],0.395 µM
same,CC50,[9],56.4 µM
same,CC50,"[10]; COLO 205, colon cancer",0.884 µM
same,CC50,[10]; [33],0.89 µM
same,GI50,[10]; [34],0.192 µM
same,GI50,[11],0.301 µM
same,CC50,[11],16.3 µM
same,GI50,[12],0.298 µM
same,CC50,[12],26.9 µM
same,GI50,[13],0.28 µM
same,CC50,[13],13.5 µM
same,GI50,[14],0.254 µM
same,CC50,[14],25.9 µM
same,GI50,[15],0.405 µM
same,CC50,[15],59.4 µM
same,GI50,[16],0.497 µM
same,CC50,[16],37.9 µM
same,GI50,[17],0.665 µM
same,CC50,[17],32.5 µM
same,GI50,[18],0.578 µM
same,CC50,[18],38.8 µM
same,GI50,[19],0.215 µM
same,CC50,[19],14.3 µM
same,GI50,[20],5.47 µM
same,CC50,[20],44.5 µM
same,GI50,[21],0.612 µM
same,CC50,[21],43.9 µM
same,GI50,[22],0.314 µM
same,CC50,[22],36.2 µM
same,GI50,[23]; Homo sapiens,0.197 µM
same,CC50,[23]; Homo sapiens,0.97 µM
same,CC50,[23],0.971 µM
same,GI50,[24],4.21 µM
same,CC50,[24],44.9 µM
same,GI50,[25],0.327 µM
same,CC50,[25],> 100 µM
same,GI50,[26],0.546 µM
same,CC50,[26],> 100 µM
same,GI50,[27],0.529 µM
same,CC50,[27],52.9 µM
same,GI50,[28],0.302 µM
same,CC50,[28],17.3 µM
same,GI50,[29],0.618 µM
same,CC50,[29],28.1 µM
same,GI50,[30],0.439 µM
same,CC50,[30],17.7 µM
same,GI50,[31],0.62 µM
same,CC50,[31],34.3 µM
same,GI50,[32],0.382 µM
same,CC50,[32],38.1 µM
"O=C(N/N=C/c1cc(Br)c(Br)[nH]1)c1[nH]c2ccc(Br)cc2c1-c1ccccc1 [Derivative 3f, (E)-5-Bromo-N′-((4,5-dibromo-1H-pyrrol-2-yl)methylene)-3-phenyl-1H-indole-2-carbohydrazide]",GI50,[1],1.82 µM
same,CC50,[1],> 100 µM
same,GI50,[2],3.84 µM
same,CC50,[2],74.3 µM
same,GI50,[3],2.68 µM
same,CC50,[3],36.3 µM
same,GI50,[4],4.76 µM
same,CC50,[4],72.5 µM
same,GI50,[5],2.09 µM
same,CC50,[5],22.8 µM
same,GI50,[6],1.88 µM
same,CC50,[6],46 µM
same,GI50,[7],2.15 µM
same,CC50,[7],30.7 µM
same,GI50,[8],0.53 µM
same,GI50,[9],3.11 µM
same,CC50,[9],37.6 µM
same,CC50,[10]; [33],48.8 µM
same,GI50,[10]; [34],3.36 µM
same,GI50,[11],2.46 µM
same,CC50,[11],35.3 µM
same,GI50,[12],2.62 µM
same,CC50,[12],34 µM
same,GI50,[13],2.7 µM
same,CC50,[13],33.1 µM
same,GI50,[14],2.2 µM
same,CC50,[14],26.9 µM
same,GI50,[15],2.96 µM
same,CC50,[15],41.9 µM
same,GI50,[16],1.55 µM
same,CC50,[16],34.3 µM
same,GI50,[17],2.97 µM
same,CC50,[17],42.4 µM
same,GI50,[18],3.73 µM
same,CC50,[18],62.8 µM
same,GI50,[19],2.49 µM
same,CC50,[19],26.3 µM
same,GI50,[20],11.1 µM
same,CC50,[20],49.4 µM
same,GI50,[21],5.1 µM
same,CC50,[21],47 µM
same,GI50,[22],3.69 µM
same,CC50,[22],90.8 µM
same,GI50,[23]; Homo sapiens,1.14 µM
same,CC50,[23]; Homo sapiens,9.73 µM
same,GI50,[24],6.8 µM
same,CC50,[24],49.5 µM
same,GI50,[25],2.38 µM
same,CC50,[25],88.8 µM
same,GI50,[26],3.52 µM
same,CC50,[26],> 100 µM
same,GI50,[27],2.57 µM
same,CC50,[27],65.3 µM
same,GI50,[28],2.3 µM
same,CC50,[28],24.5 µM
same,GI50,[29],1.94 µM
same,CC50,[29],38.5 µM
same,GI50,[30],1.2 µM
same,CC50,[30],38 µM
same,GI50,[31],3.45 µM
same,CC50,[31],44.8 µM
same,GI50,[32],2.29 µM
same,CC50,[32],63.3 µM

# From publication PMC12203311, “Design, synthesis, in silico and in vitro evaluation of pyrrole–indole hybrids as dual tubulin and aromatase inhibitors with potent anticancer activities” (RSC Advances, 2025)
